Activity calls are given as the source filed them. The rule behind the calls is not given here.
Tests used:
[1] = species on record: Homo sapiens; assay: Selectivity index, ratio of IC50 for inhibition of human full length recombinant DYRK1A to IC50 for inhibition of human 130-end recombinant CLK1
[2] = target: T1, Dual specificity protein kinase CLK1 (Homo sapiens, UniProt P49759); assay: Inhibition of human 130-end recombinant CLK1 assessed as remaining activity using ERMRPRKRQGSVR as substrate at 100 nM by [gamma-32P]ATP binding based scintillation counting based analysis relative to control
Target sequence in this assay (P49759 whole entry, looked up): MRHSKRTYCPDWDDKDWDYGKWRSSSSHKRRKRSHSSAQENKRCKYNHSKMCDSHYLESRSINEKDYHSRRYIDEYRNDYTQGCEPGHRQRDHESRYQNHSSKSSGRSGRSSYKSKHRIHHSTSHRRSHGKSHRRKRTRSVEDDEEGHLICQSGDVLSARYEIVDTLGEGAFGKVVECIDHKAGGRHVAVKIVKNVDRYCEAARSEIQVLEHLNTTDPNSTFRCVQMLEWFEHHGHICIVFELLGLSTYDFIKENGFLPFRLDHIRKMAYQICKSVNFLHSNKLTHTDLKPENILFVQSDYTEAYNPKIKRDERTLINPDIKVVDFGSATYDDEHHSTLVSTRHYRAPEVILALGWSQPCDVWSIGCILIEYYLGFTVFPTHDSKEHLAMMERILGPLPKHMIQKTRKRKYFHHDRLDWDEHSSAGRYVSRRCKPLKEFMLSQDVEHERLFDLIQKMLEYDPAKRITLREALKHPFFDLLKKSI

[3] = target: T2, Dual specificity tyrosine-phosphorylation-regulated kinase 1A (Homo sapiens, UniProt Q13627); assay: Inhibition of human full length recombinant DYRK1A assessed as remaining activity using RRRFRPASPLRGPP as substrate by [gamma-32P]ATP binding based scintillation counting based analysis
[4] = target: T1, Dual specificity protein kinase CLK1; assay: Inhibition of human 130-end recombinant CLK1 assessed as remaining activity using ERMRPRKRQGSVR as substrate by [gamma-32P]ATP binding based scintillation counting based analysis
Target sequence in this assay (P49759 whole entry): as the sequence (P49759 whole entry, looked up) above

[5] = target: T2, Dual specificity tyrosine-phosphorylation-regulated kinase 1A; assay: Inhibition of human full length recombinant DYRK1A assessed as remaining activity using RRRFRPASPLRGPP as substrate at 100 nM by [gamma-32P]ATP binding based scintillation counting based analysis relative to control
[6] = target: Dual specificity protein kinase CLK1 (Mus musculus) (UniProt P22518); assay: Inhibition of Clk1 in mouse BNL CL.2 cells assessed as redistribution of serine/arginine (SR) proteins from nucleoplasmic (active form) to nuclear speckles (storage form) at 10 uM incubated for 24 hrs by immunofluorescence assay; format: cell-based
Dual specificity protein kinase CLK1 (Mus musculus), sequence (P22518 whole entry, looked up): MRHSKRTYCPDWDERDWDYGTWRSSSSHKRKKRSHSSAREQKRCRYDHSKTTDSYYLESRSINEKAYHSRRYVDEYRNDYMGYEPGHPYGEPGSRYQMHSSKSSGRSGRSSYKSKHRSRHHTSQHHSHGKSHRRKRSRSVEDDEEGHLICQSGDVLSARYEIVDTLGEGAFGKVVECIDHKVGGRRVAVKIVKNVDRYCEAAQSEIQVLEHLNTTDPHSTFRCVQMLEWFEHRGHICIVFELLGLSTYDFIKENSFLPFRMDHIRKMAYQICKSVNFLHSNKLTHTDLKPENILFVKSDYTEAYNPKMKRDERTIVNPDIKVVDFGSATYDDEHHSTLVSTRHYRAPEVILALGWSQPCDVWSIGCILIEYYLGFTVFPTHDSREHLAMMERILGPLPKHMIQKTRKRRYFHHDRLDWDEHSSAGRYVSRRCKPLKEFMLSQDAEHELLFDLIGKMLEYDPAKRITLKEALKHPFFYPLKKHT

[7] = Metabolic stability in human liver microsomes assessed as half life at 10 uM incubated for 5 mins in the presence of NADPH-generating system by LC-MS/MS analysis; format: ADME, Microsome
[8] = Metabolic stability in human liver microsomes assessed as clearance at 10 uM incubated for 5 mins in the presence of NADPH-generating system by LC-MS/MS analysis; format: ADME, Microsome

| SMILES | Selectivity Index [1] | Activity [2] [%] | IC50 [3] [nM] | IC50 [4] [nM] | Activity [5] [%] | inhibition [6] | half-life at 10 µM [7] [min] | CLH [8] [mL/min/g] |
| --- | --- | --- | --- | --- | --- | --- | --- | --- |
| CN1CCN(c2ccc(CNc3cnc4[nH]cc(-c5cccnc5)c4c3)cc2)CC1 | 135 | 9 | 1750 | 13 | 85 |  |  |  |
| COc1ccc(-c2c[nH]c3ncc(NCc4cc(F)cc(F)c4)cc23)cc1 | 6.5 | 3 | 97 | 15 | 40 |  |  |  |
| O=S(=O)(Nc1cnc2[nH]cc(-c3cncc(F)c3)c2c1)c1ccc(F)cc1 |  | 70 | 3660 | 667 | 94 |  |  |  |
| Fc1cc(F)cc(CNc2cnc3[nH]cc(-c4cc5ccccc5s4)c3c2)c1 |  | 65 | 2210 | 252 | 108 |  |  |  |
| CN1CCN(c2ccc(CNc3cnc4[nH]cc(-c5cncc(F)c5)c4c3)cc2)CC1 | 142 | 19 | 5970 | 42 | 99 |  | 17.5 | 79.2 |
| FC(F)(F)c1cccc(CNc2cnc3[nH]cc(-c4cccnc4)c3c2)c1 | 15.3 | 18 | 689 | 45 | 96 |  |  |  |
| Fc1cccc(CNc2cnc3[nH]cc(-c4cccnc4)c3c2)c1 | 31.6 | 4 | 475 | 15 | 98 |  |  |  |
| COc1cncc(-c2c[nH]c3ncc(NCc4cc(F)cc(F)c4)cc23)c1 | 82.7 | 9 | 1320 | 16 | 81 |  | 32.1 | 88.7 |
| COc1ccc(-c2cnc3ccc(NC4CCCC4)cn23)cc1 |  | 99 |  |  | 126 |  |  |  |
| CCN(CC)c1ccc(CNc2cnc3[nH]cc(-c4cccnc4)c3c2)cc1 | 22.4 | 33 | 1560 | 70 | 98 |  |  |  |
| COc1cncc(-c2c[nH]c3ncc(NC(=O)c4ccc(F)cc4)cc23)c1 | 85.8 | 13 | 2060 | 24 | 81 |  | 115 | 13.8 |
| c1cncc(-c2c[nH]c3ncc(NCc4ccc(N5CCOCC5)cc4)cc23)c1 | 36.9 | 28 | 1700 | 46 | 83 |  |  |  |
| CC(C)(C)c1cccc(CNc2cnc3[nH]cc(-c4cccnc4)c3c2)c1 | 21.9 | 27 | 988 | 45 | 103 |  |  |  |
| O=C(Nc1cnc2[nH]cc(-c3cccnc3)c2c1)c1ccc(F)cc1 | 72.6 | 30 | 2250 | 31 | 90 |  |  |  |
| CC(C)c1cccc(CNc2cnc3[nH]cc(-c4cccnc4)c3c2)c1 | 117 | 16 | 2390 | 23 | 108 |  |  |  |
| Nc1cccc(-c2c[nH]c3ncc(NCc4cc(F)cc(F)c4)cc23)c1 | 5.9 | 28 | 389 | 66 | 88 |  |  |  |
| O=C(Nc1cnc2[nH]cc(-c3cncc(F)c3)c2c1)c1ccco1 |  | 64 | 3010 | 389 | 88 |  |  |  |
| COc1ccc(-c2cnc3ccc(NCc4ccc(F)cc4)cn23)cc1 |  | 91 |  |  | 110 |  |  |  |
| Fc1cc(F)cc(CNc2cnc3[nH]cc(-c4cccnc4)c3c2)c1 | 16 | 12 | 288 | 18 | 91 |  |  |  |
| Fc1cc(F)cc(CNc2cnc3[nH]cc(-c4ccc(C(F)(F)F)cc4)c3c2)c1 | 1.7 | 80 | 765 | 458 | 108 |  |  |  |
| COc1cncc(-c2c[nH]c3ncc(NC(=O)c4ccc(Cl)cc4OC)cc23)c1 | 700 | 8 | 3500 | 5 | 95 |  | 101 | 15 |
| Fc1cc(F)cc(CNc2cnc3[nH]cc(C4=CCCCC4)c3c2)c1 |  | 74 | 2460 | 324 | 99 |  |  |  |
| Fc1ccc(/C=N/c2cnc3[nH]cc(-c4cncc(F)c4)c3c2)cc1 |  | 70 | 1350 | 510 | 86 |  |  |  |
| COc1cncc(-c2c[nH]c3ncc(NCc4ccc(F)cc4)cc23)c1 | 156 | 6 | 2330 | 15 | 88 |  | 20.3 | 76.8 |
| O=C(Nc1cc(C(F)(F)F)cc(C(F)(F)F)c1)Nc1cnc2[nH]cc(-c3cncc(F)c3)c2c1 |  | 88 | 5680 | 1870 | 106 |  |  |  |
| COc1ccc(-c2cnc3ccc(NCc4cc(F)cc(F)c4)cn23)cc1 | 0.8 | 105 | 465 | 569 | 91 |  |  |  |
| Fc1cc(F)cc(CNc2cnc3[nH]cc(-c4ccc5ccccc5c4)c3c2)c1 |  | 80 | > 5000 | 476 | 106 |  |  |  |

Further lines, results first:

| Selectivity Index [1] | Activity [2] [%] | IC50 [3] [nM] | IC50 [4] [nM] | Activity [5] [%] | inhibition [6] | half-life at 10 µM [7] [min] | CLH [8] [mL/min/g] | SMILES |
| --- | --- | --- | --- | --- | --- | --- | --- | --- |
|  | 85 |  |  | 111 |  |  |  | CCCc1ccc(-c2c[nH]c3ncc(NCc4cc(F)cc(F)c4)cc23)cc1 |
| 41 | 45 | 3650 | 89 | 87 |  |  |  | O=C(Nc1cnc2[nH]cc(-c3cccnc3)c2c1)c1ccc(C(F)(F)F)c(F)c1 |
| 1.3 |  |  | 34 |  | Active |  |  | Nc1ccc(-c2cnc3[nH]cc(-c4ccc(O)cc4)c3c2)cc1 |
|  | 89 | > 5000 | 762 | 105 |  |  |  | NC(=O)c1cccc(-c2c[nH]c3ncc(NCc4cc(F)cc(F)c4)cc23)c1 |
| 119 | 2 | 2030 | 17 | 89 |  | 19.5 | 80.4 | COc1cncc(-c2c[nH]c3ncc(NCc4cccc(F)c4)cc23)c1 |
|  | 103 |  |  | 101 |  |  |  | COc1ccc(-c2cnc3ccc(NCc4ccc(N(C)C)cc4)cn23)cc1 |
| 60.5 | 20 | 3990 | 66 | 92 |  | > 120 | < 12 | COc1cc(Cl)ccc1C(=O)Nc1cnc2[nH]cc(-c3cncc(F)c3)c2c1 |
| 81.4 | 17 | 2040 | 25 | 84 |  |  |  | COc1cc(Cl)ccc1C(=O)Nc1cnc2[nH]cc(-c3cccnc3)c2c1 |
| 63.2 | 16 | 1900 | 30 | 85 |  | 21.2 | 65.4 | COc1cncc(-c2c[nH]c3ncc(NCc4ccc(N5CCOCC5)cc4)cc23)c1 |
|  | 61 | 653 | 454 | 74 |  |  |  | Fc1cccc(/C=N/c2cnc3[nH]cc(-c4cncc(F)c4)c3c2)c1 |
| 6.3 | 36 | 561 | 89 | 101 |  |  |  | Nc1ccc(-c2c[nH]c3ncc(NCc4cc(F)cc(F)c4)cc23)cc1 |
| 45.3 | 37 | 2900 | 64 | 83 |  | > 120 | < 12 | O=C(Nc1cnc2[nH]cc(-c3cncc(F)c3)c2c1)c1ccc(F)cc1 |
| 7.8 | 26 | 590 | 75 | 102 |  |  |  | Nc1ncc(-c2c[nH]c3ncc(NCc4cc(F)cc(F)c4)cc23)cn1 |

Reference: ChEMBL document CHEMBL5385882, “Rational design and appraisal of selective Cdc2-Like kinase 1 (Clk1) inhibitors as novel autophagy inducers for the treatment of acute liver injury (ALI)” (Eur J Med Chem, 2023)
